Measured values: US4595677A, “Substituted tetrapeptides” (Ciba-Geigy Corporation, priority 1982, dated 1986)
Non-standard residues stand in square brackets, D forms with d. Residues, ends and D or L forms follow the SMILES beside them. *: point of attachment. Sta = CC(C)C[C@H](N)[C@@H](O)CC(=O)O; Cbz = O=C(OCc1ccccc1)*; Boc = CC(C)(C)OC(=O)*; Lac = C[C@H](O)C(=O)O; βAla = NCCC(=O)O; Sar = CNCC(=O)O

Assay: solubility in water of the isolated powder
Type: physicochemical
Conditions: lyophilised product

Row | Compound | water solubility of the amorphous powder
1 | CC(C)C[C@H](NC(=O)[C@H](Cc1c[nH]cn1)NC(=O)[C@H](Cc1ccccc1)NC(=O)[C@@H]1CCCN1C(=O)[C@H](Cc1c[nH]cn1)NC(=O)[C@@H]1CCCN1)[C@@H](O)CC(=O)N[C@H](C(=O)N[C@@H](Cc1ccc(O)cc1)C(=O)N[C@@H](CCCCN)C(=O)O)C(C)C [Example 1, H-Pro-His-Pro-Phe-His-Sta-Val-Tyr-Lys-OH×AcOH] (H-PHPFH[Sta]VYK-OH) | readily water-soluble
2 | CC(C)C[C@H](NC(=O)[C@H](Cc1c[nH]cn1)NC(=O)[C@H](Cc1ccccc1)NC(=O)[C@@H]1CCCN1C(=O)[C@H](CCCNC(=N)N)NC(=O)[C@@H](N)CCCNC(=N)N)[C@@H](O)CC(=O)N(C)CC(=O)N[C@@H](Cc1c[nH]cn1)C(=O)N[C@@H](CCCCN)C(=O)O [Example 19, H-Arg-Arg-Pro-Phe-His-Sta-Sar-His-Lys-OH] (H-RRPFH[Sta][Sar]HK-OH) | readily water-soluble
3 | CC(C)C[C@H](NC(=O)[C@H](Cc1c[nH]cn1)NC(=O)[C@H](Cc1ccccc1)NC(=O)[C@@H]1CCCN1C(=O)[C@H](CCCNC(=N)N)NC(=O)[C@@H](N)CCCNC(=N)N)[C@@H](O)CC(=O)O[C@@H](C)C(=O)N[C@@H](Cc1c[nH]cn1)C(N)=O [Example 23, H-Arg-Arg-Pro-Phe-His-Sta-Lac-His-NH2] (H-RRPFH[Sta][Lac]H-NH2) | water-soluble
4 | Cbz-RRPFH[Sta][Sar]HK(Boc)-OMe [Example 16] | readily water-soluble
5 | Cbz-RRPFH[Sta][βAla]H-NH2 [Example 20] | water-soluble
6 | Z-Arg-Arg-Pro-Phe-His-Sta-Lac-His-NH2 [Example 22] | readily water-soluble
